The target in experiment [1] is T1, Lethal factor (Bacillus anthracis, UniProt P15917).
T1 sequence (P15917 whole entry): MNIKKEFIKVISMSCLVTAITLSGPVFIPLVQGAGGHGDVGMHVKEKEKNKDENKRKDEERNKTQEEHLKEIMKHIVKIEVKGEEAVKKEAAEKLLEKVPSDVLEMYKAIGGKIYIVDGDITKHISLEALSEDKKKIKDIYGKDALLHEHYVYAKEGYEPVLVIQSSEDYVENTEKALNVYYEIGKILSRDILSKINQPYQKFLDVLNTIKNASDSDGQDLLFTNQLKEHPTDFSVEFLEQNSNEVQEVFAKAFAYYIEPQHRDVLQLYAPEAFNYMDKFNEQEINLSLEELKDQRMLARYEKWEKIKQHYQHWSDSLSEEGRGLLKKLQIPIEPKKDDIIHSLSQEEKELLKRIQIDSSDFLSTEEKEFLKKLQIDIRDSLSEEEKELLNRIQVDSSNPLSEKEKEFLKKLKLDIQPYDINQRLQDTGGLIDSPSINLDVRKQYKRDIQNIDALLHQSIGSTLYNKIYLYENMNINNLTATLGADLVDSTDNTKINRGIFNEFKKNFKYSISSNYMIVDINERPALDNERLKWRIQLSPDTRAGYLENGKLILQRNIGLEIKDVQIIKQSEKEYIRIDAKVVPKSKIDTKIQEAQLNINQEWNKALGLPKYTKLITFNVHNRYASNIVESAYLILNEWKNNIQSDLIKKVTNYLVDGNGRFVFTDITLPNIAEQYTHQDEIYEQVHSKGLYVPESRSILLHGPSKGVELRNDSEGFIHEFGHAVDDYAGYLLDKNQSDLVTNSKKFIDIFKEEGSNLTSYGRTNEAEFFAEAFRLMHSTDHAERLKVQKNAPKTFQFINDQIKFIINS

Experiment [2] deals with T1, Lethal factor. This is another data set of the same source.
The target in experiment [3] is T1, Lethal factor. Put plainly: Inhibition of LF.

Where only a bound is given, the exact number is not on record here.

By IC50 is commonly meant the concentration that gives 50% inhibition. Read a low IC50 as greater potency in that assay. In the case of `CC(C)[C@@H](NS(=O)(=O)c1ccccc1F)C(=O)NO`, the results for the IC50 in experiment [1] and in experiment [2] were 6600 nM and > 20000 nM, respectively.
The corresponding values for `CC(C)[C@@H](NS(=O)(=O)CCc1ccccc1)C(=O)NO` are 11900 nM and > 20000 nM.
For `COc1ccc(S(=O)(=O)N(Cc2ccncc2)[C@@H](C(=O)NO)C(C)C)cc1` the same measures were 3100 nM and 9500 nM.
The corresponding values for `Cc1cc(S(=O)(=O)N[C@@H](C(=O)NO)C2CCC2)ccc1F` are 130 nM and 670 nM.
As to `Cc1cc(S(=O)(=O)N[C@H](CCNC(=O)CN)C(=O)NO)ccc1F`, the figures for the half-maximal inhibitory concentration (IC50) in experiment [1] and in experiment [2] were 37 nM and 7400 nM, respectively.
Turning to `Cc1cc(S(=O)(=O)N[C@H](CCNC(=O)C(C)(C)N)C(=O)NO)ccc1F`, the IC50 in experiment [1] amounted to 57 nM; in experiment [2], 8700 nM.
For `CC(C)[C@@H](NS(=O)(=O)c1ccc(Cl)s1)C(=O)NO` the same measures were 1310 nM and 6450 nM.
The corresponding values for `Cc1cc(S(=O)(=O)NC(CCc2c[nH]cn2)C(=O)NO)ccc1F` (racemic) are 75 nM and 2800 nM.
For `CC[C@H](C)[C@@H](NS(=O)(=O)c1ccc(F)c(C)c1)C(=O)NO` the same measures were 67 nM and 230 nM.
For `CC(C)[C@@H](NS(=O)(=O)c1ccc(C(F)(F)F)cc1)C(=O)NO`, the IC50 in experiment [1] is > 40000 nM; in experiment [2], > 20000 nM.
For `Cc1cc(S(=O)(=O)N[C@H](CC2CC2)C(=O)NO)ccc1F` the same measures were 51 nM and 130 nM.
The corresponding values for `Cc1cc(S(=O)(=O)N[C@@H](C(=O)NO)[C@@H](C)C2CC2)ccc1F` are 65 nM and 460 nM.
The corresponding values for `CC[C@@H](C)[C@@H](NS(=O)(=O)c1ccc(F)c(C)c1)C(=O)NO` are 67 nM and 130 nM.
On to `CCCCOc1ccc(S(=O)(=O)N[C@@H](C(=O)NO)C(C)C)cc1`, for which the IC50 is > 40000 nM in experiment [1] and > 20000 nM in experiment [2].
For `COc1ccc(S(=O)(=O)N[C@@H](C(=O)NO)C(C)C)cc1` the same measures were 900 nM and 7300 nM.
The corresponding values for `Cc1cc(S(=O)(=O)N[C@@H](C(=O)NO)C(C)(C)C)ccc1F` are 300 nM and 2300 nM.
For `CC(C)[C@@H](NS(=O)(=O)c1ccccc1)C(=O)NO` the same measures were 1100 nM and 7800 nM.
With `CC(C)[C@@H](NS(=O)(=O)c1ccc(F)cc1)C(=O)NO`, the IC50 was 290 nM in experiment [1] and 3000 nM in experiment [2].
The corresponding values for `CCCC[C@@H](NS(=O)(=O)c1ccc(F)c(C)c1)C(=O)NO` are 70 nM and 410 nM.
The corresponding values for `Cc1cc(S(=O)(=O)N[C@H](CCNC(=O)[C@H](C)N)C(=O)NO)ccc1F` are 59 nM and 7470 nM.
The corresponding values for `Cc1cccc(S(=O)(=O)N[C@@H](C(=O)NO)C(C)C)c1` are 400 nM and 1290 nM.
With `CC(C)[C@@H](NS(=O)(=O)Cc1cccc(Cl)c1)C(=O)NO`, the IC50 in experiment [1] was 16600 nM; in experiment [2], > 20000 nM.
For `CC(C)[C@@H](NS(=O)(=O)CC(F)(F)F)C(=O)NO` the same measures were > 40000 nM and > 40000 nM.
The corresponding values for `CC(C)[C@@H](NS(=O)(=O)c1ccc(F)cc1CO)C(=O)NO` are 1310 nM and > 20000 nM.
The corresponding values for `Cc1cc(S(=O)(=O)N[C@@H](C(=O)NO)C(C)C)ccc1OCc1ccccc1` are > 40000 nM and > 20000 nM.
As to `CC(C)[C@@H](NS(=O)(=O)c1ccc(-c2cnns2)s1)C(=O)NO`, the IC50 is 810 nM in experiment [1] and 10200 nM in experiment [2].
The corresponding values for `Cc1cc(S(=O)(=O)N[C@@H](C(=O)NO)C2CCCC2)ccc1F` are 64 nM and 170 nM.
The corresponding values for `Cc1ccc(S(=O)(=O)N[C@@H](C(=O)NO)C(C)C)cc1` are 3000 nM and 15000 nM.
For `Cc1cc(S(=O)(=O)N[C@@H](C(=O)NO)c2ccccc2)ccc1F` the same measures were 50 nM and 370 nM.
For `Cc1cc(S(=O)(=O)N[C@H](CCOCCN)C(=O)NO)ccc1F`, the IC50 in experiment [1] is 48 nM; in experiment [2], 3500 nM.
The corresponding values for `Cc1cc(S(=O)(=O)N[C@@H](C(=O)NO)C(C)C)ccc1O` are 1640 nM and > 20000 nM.
The corresponding values for `Cc1cc(S(=O)(=O)N[C@@H](C(=O)NO)C2CC2)ccc1F` are 120 nM and 730 nM.
Molecule `Cc1cc(S(=O)(=O)N[C@@H](C(=O)NO)C(C)C)ccc1F` showed an IC50 in experiment [2] of 120 nM.
The molecule `COc1ccc(S(=O)(=O)N(CCn2ccnc2)[C@@H](C(=O)NO)C(C)C)cc1` had an IC50 in experiment [1] of 19100 nM.
As to `Cc1cc(S(=O)(=O)N[C@H](CCCN=C(N)N)C(=O)NO)ccc1F`, the IC50 in experiment [1] turned out to be 40 nM; in experiment [2], 1700 nM.
Turning to `CC(C)[C@@H](NS(=O)(=O)c1ccc(F)c(CO)c1)C(=O)NO`, the IC50 in experiment [1] was 600 nM; in experiment [2], 3740 nM.
For `CC[C@@H](NS(=O)(=O)c1ccc(F)c(C)c1)C(=O)NO` the same measures were 100 nM and 490 nM.
Consider `COc1ccc(S(=O)(=O)N(Cc2cccnc2)[C@@H](C(=O)NO)C(C)C)cc1.Cl` [CGS-27023A], for which the figures for the IC50 in experiment [1], in experiment [2] and in experiment [3] were 1200 nM, 12000 nM and “Active”, respectively.
In the case of `Cc1cc(S(=O)(=O)N[C@@H](C(=O)NO)[C@H]2CCOC2)ccc1F`, the values for the IC50 in experiment [1] and in experiment [2] were 120 nM and 450 nM, respectively.
Take `CC(C)[C@@H](NS(=O)(=O)c1cccc(F)c1)C(=O)NO`: the IC50 in experiment [1] was 2800 nM; in experiment [2], 12400 nM.
In experiment [1], `COc1ccc(S(=O)(=O)N(CCc2ccsc2)[C@@H](C(=O)NO)C(C)C)cc1` returned an IC50 of 2100 nM. This lies in the single-digit micromolar range.
For the molecule `Cc1cc(S(=O)(=O)N[C@H](C)C(=O)NO)ccc1F`, the IC50 in experiment [1] is 130 nM; in experiment [2], 2100 nM.
For `CC(C)[C@@H](NS(=O)(=O)c1ccc(-c2ccccc2)cc1)C(=O)NO` the same measures were > 40000 nM and > 20000 nM.
For `Cc1cc(S(=O)(=O)N[C@@H](C(=O)NO)C2CCCCC2)ccc1F` the same measures were 42 nM and 190 nM.
For `COc1ccc(S(=O)(=O)N[C@@H]2CCN(O)C2=O)cc1` the same measures were > 40000 nM and > 40000 nM.
Consider `CC(=O)N(Cc1cccnc1)[C@@H](C(=O)NO)C(C)C`, for which the IC50 in experiment [1] was > 40000 nM; in experiment [2] it was > 20000 nM.
`COc1ccc(S(=O)(=O)N(C)[C@@H](C(=O)NO)C(C)C)cc1`: inhibition in experiment [2] was half-maximal at 17000 nM (IC50).
As to `CC(C)[C@@H](NS(=O)(=O)c1ccc(F)c2ccccc12)C(=O)NO`, the IC50 in experiment [1] turned out to be 460 nM; in experiment [2] it was 2760 nM.
For `Cc1ccc(S(=O)(=O)N[C@@H](C(=O)NO)C(C)C)cc1F` the same measures were 5180 nM and > 20000 nM.
For `CC(C)[C@@H](NS(=O)(=O)c1ccc(Oc2ccccc2)cc1)C(=O)NO` the same measures were > 40000 nM and > 20000 nM.

Values taken from ChEMBL document CHEMBL1138106, “The discovery of a potent and selective lethal factor inhibitor for adjunct therapy of anthrax infection” (Bioorg Med Chem Lett, 2006).
